The values that follow come from ChEMBL document CHEMBL5512671, “Structure-Based Optimization of Novel Sterol 24-C-Methyltransferase Inhibitors for the Treatment of Candida albicans Infections” (J Med Chem, 2024).

In brackets after ≈: the same amount, converted by molar mass. Activity calls are given as the source filed them. No cut-off for these calls is given here.

The first data set deals with Candida albicans. Put plainly: Antifungal activity against Candida albicans SC5314 assessed as inhibition of fungal growth incubated for 24 hrs by CLSI protocol based broth microdilution method. Type of data set: functional.
Conditions: not given
Regarding `CN(C/C=C/C#CC(C)(C)C)Cc1cccc2ccccc12` [TERBINAFINE], the MIC80 is 32 µg/mL (≈ 110 µM).

`Cc1c(-n2c(-c3ccc4ccccc4c3)cs/c2=N\c2ccc(C(F)(F)F)cc2)c(=O)n(-c2ccccc2)n1C`: the MIC80 was more than 128 µg/mL.

On to `Cc1c(-n2c(-c3ccc4ccccc4c3)cs/c2=N\c2ccc(Br)cc2)c(=O)n(-c2ccccc2)n1C`, for which the MIC80 is more than 128 µg/mL.

Consider `Cc1c(-n2c(-c3ccc(Br)cc3)cs/c2=N\c2ccc(Br)cc2)c(=O)n(-c2ccccc2)n1C`, for which the MIC80 was more than 128 µg/mL.

As to `Cc1c(-n2c(-c3ccc4ccccc4c3)cs/c2=N\c2ccc3ccccc3c2)c(=O)n(-c2ccccc2)n1C`, the MIC80 was more than 128 µg/mL.

On to `Cc1c(-n2c(-c3ccc4ccccc4c3)cs/c2=N\c2cccc3ccccc23)c(=O)n(-c2ccccc2)n1C`, for which the MIC80 is more than 128 µg/mL.

As to `Cc1c(-n2c(-c3ccc(Br)cc3)cs/c2=N\c2ccccc2)c(=O)n(-c2ccccc2)n1C`, the MIC80 was more than 128 µg/mL.

In the case of `CCCCCCCCCCCCCN1CC(C)OC(C)C1` (stereo unspecified) [TRIDEMORPH], the MIC80 was more than 128 µg/mL.

A further data set relates to Candida albicans. Nature of the data set: Antifungal activity against Candida albicans SC5314 assessed as inhibition of hyphae growth incubated for 24 hrs by CLSI protocol based broth microdilution method. In kind it is functional.
Conditions: not given
Regarding `Cc1c(-n2c(-c3ccc4ccccc4c3)cs/c2=N\c2ccc(C(F)(F)F)cc2)c(=O)n(-c2ccccc2)n1C`, the MIC50 is 2 µg/mL (≈ 3.59 µM).

Take `Cc1c(-n2c(-c3ccc4ccccc4c3)cs/c2=N\c2ccc(Br)cc2)c(=O)n(-c2ccccc2)n1C`: the MIC50 amounted to 2 µg/mL (≈ 3.52 µM).

`Cc1c(-n2c(-c3ccc(Br)cc3)cs/c2=N\c2ccc(Br)cc2)c(=O)n(-c2ccccc2)n1C`: the MIC50 is 1 µg/mL (≈ 1.68 µM).

Regarding `Cc1c(-n2c(-c3ccc4ccccc4c3)cs/c2=N\c2ccc3ccccc3c2)c(=O)n(-c2ccccc2)n1C`, the MIC50 turned out to be 0.5 µg/mL (≈ 0.928 µM).

With `Cc1c(-n2c(-c3ccc4ccccc4c3)cs/c2=N\c2cccc3ccccc23)c(=O)n(-c2ccccc2)n1C`, the MIC50 was 0.5 µg/mL (≈ 0.928 µM).

On to `Cc1c(-n2c(-c3ccc(Br)cc3)cs/c2=N\c2ccccc2)c(=O)n(-c2ccccc2)n1C`, for which the MIC50 came to 2 µg/mL (≈ 3.87 µM).

Tested on in another data set: not listed separately
Nature of the data set: Cytotoxicity against human BEAS-2B cells incubated for 48 hrs by CCK-8 method. Type of data set: toxicity, cell-based.
Conditions: not given
`Cc1c(-n2c(-c3ccc4ccccc4c3)cs/c2=N\c2ccc(C(F)(F)F)cc2)c(=O)n(-c2ccccc2)n1C` came in with an EC50 at 48 h of more than 50 µg/mL.

In turn, `Cc1c(-n2c(-c3ccc4ccccc4c3)cs/c2=N\c2ccc(Br)cc2)c(=O)n(-c2ccccc2)n1C` gave an EC50 at 48 h of more than 50 µg/mL.

Molecule `Cc1c(-n2c(-c3ccc(Br)cc3)cs/c2=N\c2ccc(Br)cc2)c(=O)n(-c2ccccc2)n1C` displayed an EC50 at 48 h of more than 50 µg/mL.

`Cc1c(-n2c(-c3ccc4ccccc4c3)cs/c2=N\c2ccc3ccccc3c2)c(=O)n(-c2ccccc2)n1C` registered an EC50 at 48 h of more than 50 µg/mL.

For the molecule `Cc1c(-n2c(-c3ccc4ccccc4c3)cs/c2=N\c2cccc3ccccc23)c(=O)n(-c2ccccc2)n1C`, the EC50 at 48 h was more than 50 µg/mL.

For `Cc1c(-n2c(-c3ccc(Br)cc3)cs/c2=N\c2ccccc2)c(=O)n(-c2ccccc2)n1C`, the EC50 at 48 h was more than 50 µg/mL.

Tested on in a further data set: not listed separately
Nature of the data set: Cytotoxicity against human HUVEC cells incubated for 48 hrs by CCK-8 method. Type of data set: toxicity, cell-based.
Conditions: not given
`Cc1c(-n2c(-c3ccc4ccccc4c3)cs/c2=N\c2ccc(C(F)(F)F)cc2)c(=O)n(-c2ccccc2)n1C` came in with an EC50 at 48 h of more than 50 µg/mL.

The molecule `Cc1c(-n2c(-c3ccc4ccccc4c3)cs/c2=N\c2ccc(Br)cc2)c(=O)n(-c2ccccc2)n1C` displayed an EC50 at 48 h of more than 50 µg/mL.

Regarding `Cc1c(-n2c(-c3ccc(Br)cc3)cs/c2=N\c2ccc(Br)cc2)c(=O)n(-c2ccccc2)n1C`, the EC50 at 48 h was more than 50 µg/mL.

On to `Cc1c(-n2c(-c3ccc4ccccc4c3)cs/c2=N\c2ccc3ccccc3c2)c(=O)n(-c2ccccc2)n1C`, for which the EC50 at 48 h is more than 50 µg/mL.

Consider `Cc1c(-n2c(-c3ccc4ccccc4c3)cs/c2=N\c2cccc3ccccc23)c(=O)n(-c2ccccc2)n1C`, for which the EC50 at 48 h was more than 50 µg/mL.

In the case of `Cc1c(-n2c(-c3ccc(Br)cc3)cs/c2=N\c2ccccc2)c(=O)n(-c2ccccc2)n1C`, the EC50 at 48 h is more than 50 µg/mL.

Tested on in a further data set: not listed separately
Put plainly: Hemolytic activity in mouse RBC assessed as hemolysis at 2 to 32 ug/ml incubated for 60 mins by absorbance based analysis relative to control. In kind it is toxicity, cell-based, Erythrocyte. As to conditions: mouse red blood cells, at 2 to 32 µg/mL, dose 2-32 µg/ml, read-out: Activity.
`Cc1c(-n2c(-c3ccc4ccccc4c3)cs/c2=N\c2ccc(C(F)(F)F)cc2)c(=O)n(-c2ccccc2)n1C`: the hemolysis at 1 h was less than 1%.

Take `Cc1c(-n2c(-c3ccc4ccccc4c3)cs/c2=N\c2ccc(Br)cc2)c(=O)n(-c2ccccc2)n1C`: the hemolysis at 1 h was less than 1%.

As to `Cc1c(-n2c(-c3ccc(Br)cc3)cs/c2=N\c2ccc(Br)cc2)c(=O)n(-c2ccccc2)n1C`, the hemolysis at 1 h was less than 1%.

For the molecule `Cc1c(-n2c(-c3ccc4ccccc4c3)cs/c2=N\c2ccc3ccccc3c2)c(=O)n(-c2ccccc2)n1C`, the hemolysis at 1 h is less than 1%.

For the molecule `Cc1c(-n2c(-c3ccc4ccccc4c3)cs/c2=N\c2cccc3ccccc23)c(=O)n(-c2ccccc2)n1C`, the hemolysis at 1 h is less than 1%.

As to `Cc1c(-n2c(-c3ccc(Br)cc3)cs/c2=N\c2ccccc2)c(=O)n(-c2ccccc2)n1C`, the hemolysis at 1 h is less than 1%.

Another data set concerns the target T1, Sterol 24-C-methyltransferase (Candida albicans (strain SC5314 / ATCC MYA-2876) (Yeast), UniProt O74198).
T1 sequence (O74198 whole entry): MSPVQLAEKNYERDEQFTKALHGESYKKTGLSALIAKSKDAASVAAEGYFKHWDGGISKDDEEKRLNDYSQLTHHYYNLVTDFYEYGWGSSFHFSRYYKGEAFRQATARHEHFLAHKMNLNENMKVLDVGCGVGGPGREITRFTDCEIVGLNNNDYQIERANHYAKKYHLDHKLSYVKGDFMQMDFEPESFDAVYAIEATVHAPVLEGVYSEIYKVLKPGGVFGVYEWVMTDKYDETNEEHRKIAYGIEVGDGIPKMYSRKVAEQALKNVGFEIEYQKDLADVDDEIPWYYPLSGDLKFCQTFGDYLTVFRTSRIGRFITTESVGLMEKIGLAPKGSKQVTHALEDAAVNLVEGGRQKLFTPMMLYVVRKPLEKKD
Put plainly: Inhibition of recombinant Candida albicans SC5314 Erg6 methyltransferase activity using zymosterol as substrate incubated for 15 mins followed by substrate addition by liquid scintillation counter analysis.
Conditions: not given
For `Cc1c(-n2c(-c3ccc(Br)cc3)cs/c2=N\c2ccccc2)c(=O)n(-c2ccccc2)n1C`, the IC50 is 1010 nM.

In another data set the test system is Candida albicans. Put plainly: Synergistic antifungal activity against Candida albicans SC5314 assessed as inhibition of fungal growth incubated for 24 hrs in presence of tridemorph by broth microdilution checkerboard assay. In kind it is functional.
Conditions: not given
For `Cc1c(-n2c(-c3ccc(Br)cc3)cs/c2=N\c2ccccc2)c(=O)n(-c2ccccc2)n1C`, the MIC80 amounted to 8 µg/mL.

The subject of the next data set is Candida albicans. Put plainly: Antifungal activity against Candida albicans SC5314 assessed as inhibition of hyphae growth measured after 30 passages. In kind it is functional, organism-based.
Conditions: not given
As to `Cc1c(-n2c(-c3ccc(Br)cc3)cs/c2=N\c2ccccc2)c(=O)n(-c2ccccc2)n1C`, the result was Active.

In a further data set the test system is Candida albicans. Put plainly: Antifungal activity against Candida albicans SN152 assessed as inhibition of fungal growth incubated for 24 hrs by CLSI protocol based broth microdilution method. Type of data set: functional.
Conditions: not given
As to `CN(C/C=C/C#CC(C)(C)C)Cc1cccc2ccccc12` [TERBINAFINE], the MIC80 worked out at 32 µg/mL (≈ 110 µM).

`CCCCCCCCCCCCCN1CC(C)OC(C)C1` (stereo unspecified) [TRIDEMORPH]: the MIC80 was more than 128 µg/mL.

In the next data set the test system is Candida albicans. Nature of the data set: Antifungal activity against Candida albicans erg6delta/delta assessed as inhibition of fungal growth incubated for 24 hrs by CLSI protocol based broth microdilution method. In kind it is functional.
Conditions: not given
As for `CN(C/C=C/C#CC(C)(C)C)Cc1cccc2ccccc12` [TERBINAFINE], the MIC80 came out at 0.5 µg/mL (≈ 1.72 µM).

For the molecule `CCCCCCCCCCCCCN1CC(C)OC(C)C1` (stereo unspecified) [TRIDEMORPH], the MIC80 was 0.008 µg/mL (≈ 0.0269 µM).

In a further data set the test system is Candida albicans. Nature of the data set: Synergistic antifungal activity against Candida albicans SC5314 assessed as inhibition of fungal growth incubated for 24 hrs in presence of terbinafine by broth microdilution checkerboard assay. Type of data set: functional.
Conditions: not given
Turning to `Cc1c(-n2c(-c3ccc(Br)cc3)cs/c2=N\c2ccccc2)c(=O)n(-c2ccccc2)n1C`, the MIC80 was found to be 8 µg/mL.

The next data set concerns Candida albicans. Nature of the data set: Synergistic antifungal activity against Candida albicans SC5314 assessed as fractional inhibitory concentration index incubated for 24 hrs in presence of tridemorph by broth microdilution checkerboard assay. Type of data set: functional.
Conditions: not given
On to `Cc1c(-n2c(-c3ccc(Br)cc3)cs/c2=N\c2ccccc2)c(=O)n(-c2ccccc2)n1C`, for which the “fractional inhibitory concentration index (FICI)” value is less than 0.1.

The next data set relates to Candida albicans. Put plainly: Synergistic antifungal activity against Candida albicans SC5314 assessed as fractional inhibitory concentration index incubated for 24 hrs in presence of terbinafine by broth microdilution checkerboard assay. In kind it is functional.
Conditions: not given
Regarding `Cc1c(-n2c(-c3ccc(Br)cc3)cs/c2=N\c2ccccc2)c(=O)n(-c2ccccc2)n1C`, the “fractional inhibitory concentration index (FICI)” value is listed as less than 0.1.

Another data set concerns Candida albicans. Nature of the data set: Synergistic antifungal activity against Candida albicans SC5314 assessed as inhibition of fungal growth incubated for 24 hrs in presence of (Z)-1,5-dimethyl-4-(4-(naphthalen-2-yl)-2-(phenylimino)thiazol-3(2H)-yl)-2-phenyl-1,2-dihydro-3H-pyrazol-3-one by broth microdilution checkerboard assay. Type of data set: functional.
Conditions: not given
Take `CN(C/C=C/C#CC(C)(C)C)Cc1cccc2ccccc12` [TERBINAFINE]: the MIC80 came out at 0.008 µg/mL.

Take `CCCCCCCCCCCCCN1CC(C)OC(C)C1` (stereo unspecified) [TRIDEMORPH]: the MIC80 is 0.008 µg/mL.

A further data set has as its system Candida albicans. Nature of the data set: Synergistic antifungal activity against Candida albicans SC5314 assessed as inhibition of fungal growth incubated for 24 hrs in presence of (Z)-4-(4-(4-bromophenyl)-2-(phenylimino)thiazol-3(2H)-yl)-1,5-dimethyl-2-phenyl-1,2-dihydro-3H-pyrazol-3-one by broth microdilution checkerboard assay.
Conditions: not given
In kind it is functional.
Turning to `CN(C/C=C/C#CC(C)(C)C)Cc1cccc2ccccc12` [TERBINAFINE], the MIC80 stood at 0.5 µg/mL.

As for `CCCCCCCCCCCCCN1CC(C)OC(C)C1` (stereo unspecified) [TRIDEMORPH], the MIC80 was 0.5 µg/mL.
